Experimental data reported in PubChem BioAssay AID1963973 (Molecular Pharmacology Branch, DTP, NCI, 2024).
Blank lines part the entries; values can stand above or below the compound they belong to.

System: 883617-216-R-J1-PDC tumor spheroids, viability
Assay: Anticancer human tumor 883617-216-R-J1-PDC patient-derived bladder carcinoma cell line growth inhibition [PI3K]
Settings: spheroids with HUVEC and MSC; for IC50: curve of first compound; for viability, T/C: stronger effect = lower value
Outline: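 We assembled tumor spheroids that included a stromal compartment of HUVEC and MSCs, then exposed them to targeted agents alone and together with PI3K pathway inhibitors. Concentration series descended by half-log from clinically achievable Cmax levels. Viability served as the endpoint.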

[1] = second compound 0.00316 µM, first compound 0.0316 µM
[2] = second compound 0.00316 µM, first compound 0.1 µM
[3] = second compound 0.01 µM, first compound 0.0316 µM
[4] = second compound 0.01 µM, first compound 0.1 µM
[5] = second compound 0.0316 µM, first compound 0.0316 µM
[6] = second compound 0.0316 µM, first compound 0.1 µM
[7] = second compound 0.0316 µM, first compound 0.316 µM
[8] = second compound 0.0316 µM, first compound 1 µM
[9] = second compound 0.1 µM, first compound 0.0316 µM
[10] = second compound 0.1 µM, first compound 0.1 µM
[11] = second compound 0.1 µM, first compound 0.316 µM
[12] = second compound 0.1 µM, first compound 1 µM
[13] = second compound 0.316 µM, first compound 0.0316 µM
[14] = second compound 0.316 µM, first compound 0.1 µM
[15] = second compound 0.316 µM, first compound 0.316 µM
[16] = second compound 0.316 µM, first compound 1 µM
[17] = second compound 1 µM, first compound 0.0316 µM
[18] = second compound 1 µM, first compound 0.1 µM
[19] = second compound 1 µM, first compound 0.316 µM
[20] = second compound 1 µM, first compound 1 µM
[21] = second compound 0.0316 µM, first compound 0.00316 µM
[22] = second compound 0.0316 µM, first compound 0.01 µM
[23] = second compound 0.1 µM, first compound 0.00316 µM
[24] = second compound 0.1 µM, first compound 0.01 µM
[25] = second compound 0.316 µM, first compound 0.00316 µM
[26] = second compound 0.316 µM, first compound 0.01 µM
[27] = second compound 1 µM, first compound 0.00316 µM
[28] = second compound 1 µM, first compound 0.01 µM
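Further: spheroids exposed to agents for 7 days before the viability read.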

IC50 (second compound 0.00316 µM): 9310 nM | IC50 (second compound 0.01 µM): > 10000 nM | IC50 (second compound 0.0316 µM): 888 nM | IC50 (second compound 0.1 µM): < 31.6 nM | IC50 (second compound 0.316 µM): < 31.6 nM | IC50 (second compound 1 µM): < 31.6 nM
SMILES: Cn1nccc1Nc1nccc(-c2ccn(C(CO)c3ccc(Cl)c(F)c3)c(=O)c2)n1 (stereo unspecified) + CC(Nc1ccc2c(c1)OCCn1cc(N3C(=O)OCC3C(F)F)nc1-2)C(N)=O
viability, T/C [1]: 83.2% | viability, T/C [2]: 67.5% | viability, T/C (second compound 0.00316 µM, first compound 0.316 µM): 80.3% | viability, T/C (second compound 0.00316 µM, first compound 1 µM): 75.6% | viability, T/C (second compound 0.00316 µM, first compound 3.16 µM): 80.1% | viability, T/C (second compound 0.00316 µM, first compound 10 µM): 48.1% | viability, T/C [3]: 85.6% | viability, T/C [4]: 74.7% | viability, T/C (second compound 0.01 µM, first compound 0.316 µM): 77.3% | viability, T/C (second compound 0.01 µM, first compound 1 µM): 64.2% | viability, T/C (second compound 0.01 µM, first compound 3.16 µM): 58.2% | viability, T/C (second compound 0.01 µM, first compound 10 µM): 50.1% | viability, T/C [5]: 66.5% | viability, T/C [6]: 65.9% | viability, T/C [7]: 67.1% | viability, T/C [8]: 48.1% | viability, T/C (second compound 0.0316 µM, first compound 3.16 µM): 35.9% | viability, T/C (second compound 0.0316 µM, first compound 10 µM): 34.2% | viability, T/C [9]: 44% | viability, T/C [10]: 45.1% | viability, T/C [11]: 38.1% | viability, T/C [12]: 37.1% | viability, T/C (second compound 0.1 µM, first compound 3.16 µM): 27.6% | viability, T/C (second compound 0.1 µM, first compound 10 µM): 22.4% | viability, T/C [13]: 25.1% | viability, T/C [14]: 22.8% | viability, T/C [15]: 17.2% | viability, T/C [16]: 16.2% | viability, T/C (second compound 0.316 µM, first compound 3.16 µM): 15.2% | viability, T/C (second compound 0.316 µM, first compound 10 µM): 9.06% | viability, T/C [17]: 14.9% | viability, T/C [18]: 13.6% | viability, T/C [19]: 12% | viability, T/C [20]: 11% | viability, T/C (second compound 1 µM, first compound 3.16 µM): 9.01% | viability, T/C (second compound 1 µM, first compound 10 µM): 6.11%

IC50 (second compound 0.0316 µM): 226 nM | IC50 (second compound 0.1 µM): 26.3 nM | IC50 (second compound 0.316 µM): 4.15 nM | IC50 (second compound 1 µM): < 3.16 nM | IC50 (second compound 3.16 µM): < 3.16 nM | IC50 (second compound 10 µM): < 3.16 nM
SMILES: CCN1CCN(Cc2ccc(Nc3ncc(F)c(-c4cc(F)c5nc(C)n(C(C)C)c5c4)n3)nc2)CC1 + Cc1nc(NC(=O)N2CCCC2C(N)=O)sc1-c1ccnc(C(C)(C)C(F)(F)F)c1
viability, T/C [21]: 75.7% | viability, T/C [22]: 64.7% | viability, T/C [5]: 64.2% | viability, T/C [6]: 53.8% | viability, T/C [7]: 49.9% | viability, T/C [8]: 39.6% | viability, T/C [23]: 59.7% | viability, T/C [24]: 56.3% | viability, T/C [9]: 46.4% | viability, T/C [10]: 44.4% | viability, T/C [11]: 44.3% | viability, T/C [12]: 36.3% | viability, T/C [25]: 53.3% | viability, T/C [26]: 39.7% | viability, T/C [13]: 37% | viability, T/C [14]: 31.4% | viability, T/C [15]: 26.6% | viability, T/C [16]: 28.5% | viability, T/C [27]: 29.1% | viability, T/C [28]: 25.5% | viability, T/C [17]: 24.1% | viability, T/C [18]: 17.1% | viability, T/C [19]: 21.4% | viability, T/C [20]: 19.3% | viability, T/C (second compound 3.16 µM, first compound 0.00316 µM): 12.3% | viability, T/C (second compound 3.16 µM, first compound 0.01 µM): 13.7% | viability, T/C (second compound 3.16 µM, first compound 0.0316 µM): 11.8% | viability, T/C (second compound 3.16 µM, first compound 0.1 µM): 10.5% | viability, T/C (second compound 3.16 µM, first compound 0.316 µM): 14.6% | viability, T/C (second compound 3.16 µM, first compound 1 µM): 10.5% | viability, T/C (second compound 10 µM, first compound 0.00316 µM): 7.72% | viability, T/C (second compound 10 µM, first compound 0.01 µM): 5.77% | viability, T/C (second compound 10 µM, first compound 0.0316 µM): 5.3% | viability, T/C (second compound 10 µM, first compound 0.1 µM): 4.95% | viability, T/C (second compound 10 µM, first compound 0.316 µM): 5.02% | viability, T/C (second compound 10 µM, first compound 1 µM): 5.41%

IC50 (second compound 0.00316 µM): > 100 nM | IC50 (second compound 0.01 µM): > 100 nM | IC50 (second compound 0.0316 µM): 5.36 nM | IC50 (second compound 0.1 µM): < 0.316 nM | IC50 (second compound 0.316 µM): < 0.316 nM | IC50 (second compound 1 µM): < 0.316 nM
SMILES: Cn1ncnc1[C@H]1c2n[nH]c(=O)c3cc(F)cc(c23)N[C@@H]1c1ccc(F)cc1 + CC(Nc1ccc2c(c1)OCCn1cc(N3C(=O)OCC3C(F)F)nc1-2)C(N)=O
viability, T/C (second compound 0.00316 µM, first compound 0.000316 µM): 84.3% | viability, T/C (second compound 0.00316 µM, first compound 0.001 µM): 83.1% | viability, T/C (second compound 0.00316 µM, first compound 0.00316 µM): 89% | viability, T/C (second compound 0.00316 µM, first compound 0.01 µM): 78.3% | viability, T/C [1]: 63% | viability, T/C [2]: 63.2% | viability, T/C (second compound 0.01 µM, first compound 0.000316 µM): 83% | viability, T/C (second compound 0.01 µM, first compound 0.001 µM): 94.6% | viability, T/C (second compound 0.01 µM, first compound 0.00316 µM): 79.3% | viability, T/C (second compound 0.01 µM, first compound 0.01 µM): 69% | viability, T/C [3]: 64.9% | viability, T/C [4]: 59.5% | viability, T/C (second compound 0.0316 µM, first compound 0.000316 µM): 69.6% | viability, T/C (second compound 0.0316 µM, first compound 0.001 µM): 79.7% | viability, T/C [21]: 54.2% | viability, T/C [22]: 50% | viability, T/C [5]: 44.2% | viability, T/C [6]: 40.6% | viability, T/C (second compound 0.1 µM, first compound 0.000316 µM): 43.4% | viability, T/C (second compound 0.1 µM, first compound 0.001 µM): 45.1% | viability, T/C [23]: 43.7% | viability, T/C [24]: 38.2% | viability, T/C [9]: 32.1% | viability, T/C [10]: 31.9% | viability, T/C (second compound 0.316 µM, first compound 0.000316 µM): 25.7% | viability, T/C (second compound 0.316 µM, first compound 0.001 µM): 25.3% | viability, T/C [25]: 25.8% | viability, T/C [26]: 28.6% | viability, T/C [13]: 22.8% | viability, T/C [14]: 19.1% | viability, T/C (second compound 1 µM, first compound 0.000316 µM): 18.5% | viability, T/C (second compound 1 µM, first compound 0.001 µM): 15.8% | viability, T/C [27]: 13% | viability, T/C [28]: 14.6% | viability, T/C [17]: 13.5% | viability, T/C [18]: 10.8%
